This is an account of results in patent publication US8013156B2 (Exelixis, Inc., priority 2003, dated 2011).

For the experiment, the target named is Tie-2 (Homo sapiens, UniProt Q02763). The experiment in a line: Tie-2 tyrosine kinase activity assay (luciferase/luciferin ATP consumption with pEY substrate, or 33P-ATP incorporation). Format: biochemical. To be noted: human enzyme Tie-2. In outline:
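Values are IC50 categories (A <50 nM to D ≥10,000 nM), with Ki obtainable by fitting rates to a tight-binding model. Assay formats: 33P-ATP phosphate transfer to adsorbed generic substrate counted by scintillation, or luciferase-detected ATP depletion using pEY.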

pIC50: −log10 of the molar value.

Tie-2, sequence (Q02763 23-1124): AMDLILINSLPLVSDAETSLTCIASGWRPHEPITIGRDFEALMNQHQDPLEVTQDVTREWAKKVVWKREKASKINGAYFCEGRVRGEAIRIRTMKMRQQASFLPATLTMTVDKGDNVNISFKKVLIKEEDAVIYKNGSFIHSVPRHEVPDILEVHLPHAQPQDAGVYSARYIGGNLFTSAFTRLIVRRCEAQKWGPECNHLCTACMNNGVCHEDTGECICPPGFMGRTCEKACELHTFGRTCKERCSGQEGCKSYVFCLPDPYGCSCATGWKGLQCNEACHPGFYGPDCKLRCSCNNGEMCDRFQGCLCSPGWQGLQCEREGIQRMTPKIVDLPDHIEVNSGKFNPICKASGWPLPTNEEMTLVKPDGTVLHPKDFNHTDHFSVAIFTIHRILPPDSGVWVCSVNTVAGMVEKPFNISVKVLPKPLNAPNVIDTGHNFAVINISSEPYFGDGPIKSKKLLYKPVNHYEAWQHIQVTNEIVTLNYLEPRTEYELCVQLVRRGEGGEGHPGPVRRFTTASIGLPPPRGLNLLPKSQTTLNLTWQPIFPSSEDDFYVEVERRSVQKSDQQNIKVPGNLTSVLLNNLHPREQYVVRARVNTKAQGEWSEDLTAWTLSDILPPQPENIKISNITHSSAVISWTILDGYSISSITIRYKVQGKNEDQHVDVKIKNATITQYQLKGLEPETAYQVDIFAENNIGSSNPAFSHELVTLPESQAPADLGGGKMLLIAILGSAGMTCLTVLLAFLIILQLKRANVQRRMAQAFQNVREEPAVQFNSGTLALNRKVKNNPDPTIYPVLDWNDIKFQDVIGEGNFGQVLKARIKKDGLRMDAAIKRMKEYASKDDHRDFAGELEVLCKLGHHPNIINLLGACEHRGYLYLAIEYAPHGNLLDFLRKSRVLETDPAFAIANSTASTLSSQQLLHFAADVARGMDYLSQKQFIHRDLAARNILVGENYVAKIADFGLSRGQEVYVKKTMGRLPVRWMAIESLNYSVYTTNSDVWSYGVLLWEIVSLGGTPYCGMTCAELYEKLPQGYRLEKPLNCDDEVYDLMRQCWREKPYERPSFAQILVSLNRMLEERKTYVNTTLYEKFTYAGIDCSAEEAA

By pIC50 is commonly meant the IC50 on a negative log10 scale, so that one unit is a factor of ten. A high value points to a small IC50. `CCCNc1nccc(COc2nsnc2N2CCN(C(=O)Nc3cc(C(F)(F)F)cc(C(F)(F)F)c3)CC2)n1` [Example 122, N-[3,5-bis(trifluoromethyl)phenyl]-4-[4-({[2-(propylamino)pyrimidin-4-yl]methyl}oxy)-1,2,5-thiadiazol-3-yl]piperazine-1-carboxamide] had a pIC50 of 6.00 to 7.30. For `O=C(Nc1cc(C(F)(F)F)cc(C(F)(F)F)c1)N1CCN(c2nsnc2OCc2ccnc(NC3CC3)n2)CC1` [Example 123, N-[3,5-bis(trifluoromethyl)phenyl]-4-[4-({[2-(cyclopropylamino)pyrimidin-4-yl]methyl}oxy)-1,2,5-thiadiazol-3-yl]piperazine-1-carboxamide] the value was over 7.30. The compound `CC(=O)Nc1nccc(COc2nsnc2N2CCN(C(=O)Nc3cc(C(F)(F)F)cc(C(F)(F)F)c3)CC2)n1` [Example 124, 4-[4-({[2-(acetylamino)pyrimidin-4-yl]methyl}oxy)-1,2,5-thiadiazol-3-yl]-N-[3,5-bis(trifluoromethyl)phenyl]piperazine-1-carboxamide] gave a pIC50 of over 7.30.

With `O=C(Nc1cc(COc2nsnc2N2CCN(C(=O)Nc3cc(C(F)(F)F)cc(C(F)(F)F)c3)CC2)ccn1)c1ccccc1` [Example 125, N-[3,5-bis(trifluoromethyl)phenyl]-4-{4-[({2-[(phenylcarbonyl)amino]pyridin-4-yl}methyl)oxy]-1,2,5-thiadiazol-3-yl}piperazine-1-carboxamide], the pIC50 was 5.00 to 6.00. The value for `O=C(Nc1nccc(COc2nsnc2N2CCN(C(=O)Nc3cc(C(F)(F)F)cc(C(F)(F)F)c3)CC2)n1)c1ccccc1` [Example 126, N-[3,5-bis(trifluoromethyl)phenyl]-4-{4-[({2-[(phenylcarbonyl)amino]pyrimidin-4-yl}methyl)oxy]-1,2,5-thiadiazol-3-yl}piperazine-1-carboxamide] was 6.00 to 7.30. As for `O=C(Nc1cc(C(F)(F)F)cc(C(F)(F)F)c1)N1CCN(c2nsnc2OCc2ccnc(NC3CCCC3)n2)CC1` [Example 128, N-[3,5-bis(trifluoromethyl)phenyl]-4-[4-({[2-(cyclopentylamino)pyrimidin-4-yl]methyl}oxy)-1,2,5-thiadiazol-3-yl]piperazine-1-carboxamide], the pIC50 was 6.00 to 7.30. The value for `CC(=O)Nc1cc(COc2nsnc2N2CCN(C(=O)Nc3cc(C(F)(F)F)cc(C(F)(F)F)c3)CC2)ccn1` [Example 129, 4-[4-({[2-(acetylamino)pyridin-4-yl]methyl}oxy)-1,2,5-thiadiazol-3-yl]-N-[3,5-bis(trifluoromethyl)phenyl]piperazine-1-carboxamide] was over 7.30; that for `O=C(Nc1cc(C(F)(F)F)cc(C(F)(F)F)c1)Nc1cc(COc2nsnc2N2CCN(C(=O)Nc3cc(C(F)(F)F)cc(C(F)(F)F)c3)CC2)ccn1` [Example 130, N-[3,5-bis(trifluoromethyl)phenyl]-4-{4-[({2-[({[3,5-bis(trifluoromethyl)phenyl]amino}carbonyl)amino]pyridin-4-yl}methyl)oxy]-1,2,5-thiadiazol-3-yl}piperazine-1-carboxamide] was 5.00 to 6.00.

As for `COC(=O)Nc1nccc(COc2nsnc2N2CCN(C(=O)Nc3cc(C(F)(F)F)cc(C(F)(F)F)c3)CC2)n1` [Example 131, methyl {4-[({4-[4-({[3,5-bis(trifluoromethyl)phenyl]amino}carbonyl)piperazin-1-yl]-1,2,5-thiadiazol-3-yl}oxy)methyl]pyrimidin-2-yl}carbamate], the pIC50 was over 7.30. For `CCc1cccc(NC(=O)N2CCN(c3nsnc3OCc3ccnc(NC(=O)OC)c3)CC2)c1` [Example 133, methyl [4-({[4-(4-{[(3-ethylphenyl)amino]carbonyl}piperazin-1-yl)-1,2,5-thiadiazol-3-yl]oxy}methyl)pyridin-2-yl]carbamate] the value was over 7.30; for `N#Cc1nccc(COc2nsnc2N2CCN(C(=O)Nc3cc(C(F)(F)F)cc(C(F)(F)F)c3)CC2)n1` [Example 134, N-[3,5-bis(trifluoromethyl)phenyl]-4-(4-{[(2-cyanopyrimidin-4-yl)methyl]oxy}-1,2,5-thiadiazol-3-yl)piperazine-1-carboxamide], at most 5.00; for `Nc1nccc(COc2nccnc2N2CCN(C(=O)Nc3cc(C(F)(F)F)cc(C(F)(F)F)c3)CC2)n1` [Example 135, 4-(3-{[(2-aminopyrimidin-4-yl)methyl]oxy}pyrazin-2-yl)-N-[3,5-bis(trifluoromethyl)phenyl]piperazine-1-carboxamide], over 7.30. Consider `NC(=O)c1nccc(COc2nsnc2N2CCN(C(=O)Nc3cc(C(F)(F)F)cc(C(F)(F)F)c3)CC2)n1` [Example 136, 4-[({4-[4-({[3,5-bis(trifluoromethyl)phenyl]amino}carbonyl)piperazin-1-yl]-1,2,5-thiadiazol-3-yl}oxy)methyl]pyrimidine-2-carboxamide], for which the pIC50 is 6.00 to 7.30. As to `CCCCOc1nccc(COc2nsnc2N2CCN(C(=O)Nc3cc(C(F)(F)F)cc(C(F)(F)F)c3)CC2)n1` [Example 137, N-[3,5-bis(trifluoromethyl)phenyl]-4-[4-({[2-(butyloxy)pyrimidin-4-yl]methyl}oxy)-1,2,5-thiadiazol-3-yl]piperazine-1-carboxamide], the negative logarithm of the IC50 (pIC50) is at most 5.00. For `O=C(Nc1cc(C(F)(F)F)cc(C(F)(F)F)c1)N1CCN(c2nsnc2OCc2ccncn2)CC1` [Example 138, N-[3,5-bis(trifluoromethyl)phenyl]-4-{4-[(pyrimidin-4-ylmethyl)oxy]-1,2,5-thiadiazol-3-yl}piperazine-1-carboxamide] the value was 6.00 to 7.30; for `O=C(O)c1cc(COc2nsnc2N2CCN(C(=O)Nc3cc(C(F)(F)F)cc(C(F)(F)F)c3)CC2)ccn1` [Example 139, 4-[({4-[4-({[3,5-bis(trifluoromethyl)phenyl]amino}carbonyl)piperazin-1-yl]-1,2,5-thiadiazol-3-yl}oxy)methyl]pyridine-2-carboxylic acid], at most 5.00; for `O=C(Nc1cc(COc2nsnc2N2CCN(C(=O)Nc3cc(C(F)(F)F)cc(C(F)(F)F)c3)CC2)ccn1)OCCN1CCCC1` [Example 140, 2-pyrrolidin-1-ylethyl {4-[({4-[4-({[3,5-bis(trifluoromethyl)phenyl]amino}carbonyl)piperazin-1-yl]-1,2,5-thiadiazol-3-yl}oxy)methyl]pyridin-2-yl}carbamate], over 7.30.

Compound `O=C(Nc1cc(COc2nsnc2N2CCN(C(=O)Nc3cc(C(F)(F)F)cc(C(F)(F)F)c3)CC2)ccn1)OCCN1CCOCC1` [Example 141, 2-morpholin-4-ylethyl {4-[({4-[4-({[3,5-bis(trifluoromethyl)phenyl]amino}carbonyl)piperazin-1-yl]-1,2,5-thiadiazol-3-yl}oxy)methyl]pyridin-2-yl}carbamate] had a pIC50 of over 7.30. For `Nc1nccc(COc2cccnc2N2CCN(C(=O)Nc3cc(C(F)(F)F)cc(C(F)(F)F)c3)CC2)n1` [Example 142, 4-(3-{[(2-aminopyrimidin-4-yl)methyl]oxy}pyridin-2-yl)-N-[3,5-bis(trifluoromethyl)phenyl]piperazine-1-carboxamide], the pIC50 is over 7.30.

Compound `CN1CCCC(C(=O)Nc2cc(COc3nsnc3N3CCN(C(=O)Nc4cc(C(F)(F)F)cc(C(F)(F)F)c4)CC3)ccn2)C1` (stereo not drawn) [Example 143, N-[3,5-bis(trifluoromethyl)phenyl]-4-(4-{[(2-{[(1-methylpiperidin-3-yl)carbonyl]amino}pyridin-4-yl)methyl]oxy}-1,2,5-thiadiazol-3-yl)piperazine-1-carboxamide] gave a negative-log IC50 (pIC50) of over 7.30. In the case of `CCc1cccc(NC(=O)N2CCN(c3ncccc3OCc3ccnc(N)n3)CC2)c1` [Example 144, 4-(3-{[(2-aminopyrimidin-4-yl)methyl]oxy}pyridin-2-yl)-N-(3-ethylphenyl)piperazine-1-carboxamide], the pIC50 was over 7.30.

Turning to `CN1CCN(CCOC(=O)Nc2cc(COc3nsnc3N3CCN(C(=O)Nc4cc(C(F)(F)F)cc(C(F)(F)F)c4)CC3)ccn2)CC1` [Example 145, 2-(4-methylpiperazin-1-yl)ethyl {4-[({4-[4-({[3,5-bis(trifluoromethyl)phenyl]amino}carbonyl)piperazin-1-yl]-1,2,5-thiadiazol-3-yl}oxy)methyl]pyridin-2-yl}carbamate], the pIC50 is over 7.30.

Consider `CCN1CCC(C(=O)Nc2cc(COc3nsnc3N3CCN(C(=O)Nc4cc(C(F)(F)F)cc(C(F)(F)F)c4)CC3)ccn2)CC1` [Example 146, N-[3,5-bis(trifluoromethyl)phenyl]-4-(4-{[(2-{[(1-ethylpiperidin-4-yl)carbonyl]amino}pyridin-4-yl)methyl]oxy}-1,2,5-thiadiazol-3-yl)piperazine-1-carboxamide], for which the pIC50 is over 7.30.

Compound `Nc1cc(COc2nsnc2N2CCN(C(=O)Nc3cccc(SC(F)(F)F)c3)CC2)ccn1` [Example 147, 4-(4-{[(2-aminopyridin-4-yl)methyl]oxy}-1,2,5-thiadiazol-3-yl)-N-{3-[(trifluoromethyl)thio]phenyl}piperazine-1-carboxamide] had a pIC50 of over 7.30. `Nc1cc(COc2nsnc2N2CCN(S(=O)(=O)c3cc(C(F)(F)F)cc(C(F)(F)F)c3)CC2)ccn1` [Example 148, 4-({[4-(4-{[3,5-bis(trifluoromethyl)phenyl]sulfonyl}piperazin-1-yl)-1,2,5-thiadiazol-3-yl]oxy}methyl)pyridin-2-amine]: the negative-log IC50 (pIC50) is at most 5.00.

The compound `Nc1cc(COc2nsnc2N2CCN(C(=O)Nc3cccc4ccccc34)CC2)ccn1` [Example 149, 4-(4-{[(2-aminopyridin-4-yl)methyl]oxy}-1,2,5-thiadiazol-3-yl)-N-naphthalen-1-ylpiperazine-1-carboxamide] gave a negative-log IC50 (pIC50) of at most 5.00. In turn, `CN(C)CC(=O)Nc1cc(COc2nsnc2N2CCN(C(=O)Nc3cc(C(F)(F)F)cc(C(F)(F)F)c3)CC2)ccn1` [Example 150, N-[3,5-bis(trifluoromethyl)phenyl]-4-{4-[({2-[(N,N-dimethylglycyl)amino]pyridin-4-yl}methyl)oxy]-1,2,5-thiadiazol-3-yl}piperazine-1-carboxamide] gave a negative-log IC50 (pIC50) of over 7.30.
